In patent US8334287B2 (Hoffmann-La Roche Inc., priority 2009, dated 2012) one finds Ki data, which are given here for 15 compounds.

The target of the assay is T1, human mGlu5a receptor (Homo sapiens, UniProt P41594).
T1 construct: expressed in transfected cells; host or cells: EBNA cells (transient transfection); membranes prepared from them
T1 sequence (P41594 21-1180 isoform P41594-2 limits assumed): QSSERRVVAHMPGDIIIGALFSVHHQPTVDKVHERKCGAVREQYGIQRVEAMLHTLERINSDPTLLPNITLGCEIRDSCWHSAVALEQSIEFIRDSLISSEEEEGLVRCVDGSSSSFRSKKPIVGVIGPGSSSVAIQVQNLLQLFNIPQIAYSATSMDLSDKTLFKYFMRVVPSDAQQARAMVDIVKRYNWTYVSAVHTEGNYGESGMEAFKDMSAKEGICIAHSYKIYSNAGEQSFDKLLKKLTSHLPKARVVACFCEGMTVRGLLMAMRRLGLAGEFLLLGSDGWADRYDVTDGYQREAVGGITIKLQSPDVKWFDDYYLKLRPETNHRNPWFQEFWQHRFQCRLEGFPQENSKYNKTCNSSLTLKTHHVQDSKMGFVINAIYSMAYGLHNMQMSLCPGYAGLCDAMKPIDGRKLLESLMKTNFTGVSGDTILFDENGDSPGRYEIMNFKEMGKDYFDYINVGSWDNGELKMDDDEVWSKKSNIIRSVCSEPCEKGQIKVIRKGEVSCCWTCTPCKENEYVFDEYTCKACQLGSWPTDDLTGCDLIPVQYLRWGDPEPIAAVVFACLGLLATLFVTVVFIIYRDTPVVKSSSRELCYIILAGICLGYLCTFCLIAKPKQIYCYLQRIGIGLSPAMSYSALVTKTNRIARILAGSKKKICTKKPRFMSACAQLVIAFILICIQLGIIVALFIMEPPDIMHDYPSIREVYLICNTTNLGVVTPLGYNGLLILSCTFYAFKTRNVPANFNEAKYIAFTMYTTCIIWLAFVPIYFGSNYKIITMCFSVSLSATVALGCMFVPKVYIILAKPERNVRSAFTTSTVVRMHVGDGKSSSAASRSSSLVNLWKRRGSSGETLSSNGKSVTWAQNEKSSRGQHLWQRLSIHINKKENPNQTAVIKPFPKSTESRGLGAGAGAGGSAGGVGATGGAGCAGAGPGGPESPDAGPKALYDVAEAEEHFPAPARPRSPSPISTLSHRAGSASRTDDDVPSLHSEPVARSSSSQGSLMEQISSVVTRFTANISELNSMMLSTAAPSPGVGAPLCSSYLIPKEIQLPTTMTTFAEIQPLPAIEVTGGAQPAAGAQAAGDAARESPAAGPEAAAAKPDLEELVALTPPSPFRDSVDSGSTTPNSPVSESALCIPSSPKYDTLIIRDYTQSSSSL
The assay is described as follows: mGlu5a receptor binding, displacement of [3H]MPEP. The note with it: competing radioligand [3H]MPEP; human mGlu5a receptor transiently transfected into EBNA cells; Ki=IC50/1+L/Kd. As for the experimental part:
For binding experiments, cDNA encoding human mGlu5a receptor was transiently transfected into EBNA cells using a procedure described by E.-J. Schlaeger and K. Christensen (Cytotechnology 1998, 15, 1-13). For functional assays, [Ca^2+]i measurements were performed largely as described previously (Porter et al., Br J. Pharmacol 1999, 128, 13-20) on stably expressed recombinant human mGlu 5a receptors in HEK-293 cells. The cells were dye loaded using Fluo 4-AM (purchased from Molecular Probes, 2 μM final concentration) [Ca^2+]i measurements were performed using a fluorometric imaging plate reader (FLIPR, Molecular Devices Corporation, La Jolla, Calif., USA). Antagonist evaluation was performed following a 5 minute preincubation with the test compounds followed by the addition of a submaximal addition of agonist.
The inhibition (antagonists) curves were fitted with a four parameter logistic equation giving IC50, and Hill coefficient using the iterative non linear curve fitting software Xcel fit.
The Ki values of the compounds tested are given. The Ki value is defined by the following formula: Ki=IC50/1+L/Kd in which the IC50 values are those concentrations of the compounds tested in which causes 50% inhibition of the competing radioligand ([^3H]MPEP). [L] is the concentration of radioligand used in the binding experiment and the Kd value of the radioligand is empiracally determined for each batch of membranes prepared.
(Loss of bound radioactivity is the signal in a displacement assay; it reports binding, not function.)
As to `Cc1nc(C#Cc2cccc(F)c2)c(C)n1-c1ccn(C)c(=O)c1` [Example 41, 4-[4-(3-fluoro-phenylethynyl)-2,5-dimethyl-imidazol-1-yl]-1-methyl-1H-pyridin-2-one], the Ki (usually a dissociation constant, usually derived from enzyme kinetics or from competition with a known ligand) was 0.052 µM. Under `Cc1nc(C#Cc2cccc(Cl)c2)c(C)n1-c1cnn(C)c(=O)c1` [Example 42, 5-[4-(3-chloro-phenylethynyl)-2,5-dimethyl-imidazol-1-yl]-2-methyl-2H-pyridazin-3-one] stands 0.038 µM; under `Cc1nc(C#Cc2ccnc(Cl)c2)c(C)n1-c1cnn(C)c(=O)c1` [Example 43, 5-[4-(2-chloro-pyridin-4-ylethynyl)-2,5-dimethyl-imidazol-1-yl]-2-methyl-2H-pyridazin-3-one], 0.306 µM. Then `Cc1cccc(C#Cc2nc(C)n(-c3cnn(C)c(=O)c3)c2C)c1` [Example 44, 5-(2,5-dimethyl-4-m-tolylethynyl-imidazol-1-yl)-2-methyl-2H-pyridazin-3-one], with 0.071 µM; and `Cc1cccc(C#Cc2nc(C)n(-c3cc(=O)n(C)cn3)c2C)c1` [Example 45, 6-(2,5-dimethyl-4-m-tolylethynyl-imidazol-1-yl)-3-methyl-3H-pyrimidin-4-one], with 0.074 µM.

`Cc1nc(C#Cc2ccnc(Cl)c2)c(C)n1-c1cc(=O)n(C)cn1` [Example 46, 6-[4-(2-chloro-pyridin-4-ylethynyl)-2,5-dimethyl-imidazol-1-yl]-3-methyl-3H-pyrimidin-4-one] displayed a Ki of 0.569 µM.

In the case of `CNC(=O)Cn1ccc(-n2cc(C#Cc3cccc(C)c3)nc2C)cc1=O` [Example 48, N-methyl-2-[4-(2-methyl-4-m-tolylethynyl-imidazol-1-yl)-2-oxo-2H-pyridin-1-yl]-acetamide], the Ki is 0.788 µM. The compound `Cc1cccc(C#Cc2cn(-c3ccn(CS(C)(=O)=O)c(=O)c3)c(C)n2)c1` [Example 50] registered a Ki of 0.559 µM.

In turn, `CCn1ncc(-n2cc(C#Cc3cccc(C)c3)nc2C)cc1=O` [Example 51, 2-ethyl-5-(2-methyl-4-m-tolylethynyl-imidazol-1-yl)-2H-pyridazin-3-one] displayed a Ki of 0.053 µM. Consider `CCn1ncc(-n2cc(C#Cc3cccc(Cl)c3)nc2C)cc1=O` [Example 52, 5-[4-(3-Chloro-phenylethynyl)-2-methyl-imidazol-1-yl]-2-ethyl-2H-pyridazin-3-one], for which the Ki came out at 0.037 µM. Regarding `CCn1ncc(-n2cc(C#Cc3ccnc(Cl)c3)nc2C)cc1=O` [Example 53, 5-[4-(2-chloro-pyridin-4-ylethynyl)-2-methyl-imidazol-1-yl]-2-ethyl-2H-pyridazin-3-one], the Ki came to 0.204 µM.

With `COCCn1ncc(-n2cc(C#Cc3cccc(C)c3)nc2C)cc1=O` [Example 54, 2-(2-methoxy-ethyl)-5-(2-methyl-4-m-tolylethynyl-imidazol-1-yl)-2H-pyridazin-3-one], the Ki worked out at 0.131 µM. Then `COCCn1ncc(-n2cc(C#Cc3cccc(Cl)c3)nc2C)cc1=O` [Example 55, 5-[4-(3-Chloro-phenylethynyl)-2-methyl-imidazol-1-yl]-2-(2-methoxy-ethyl)-2H-pyridazin-3-one], with 0.093 µM; and `COCCn1ncc(-n2cc(C#Cc3ccnc(Cl)c3)nc2C)cc1=O` [Example 56], with 0.597 µM.

As for `COCCn1ncc(-n2c(C)nc(C#Cc3ccnc(Cl)c3)c2C)cc1=O` [Example 57, 5-[4-(2-Chloro-pyridin-4-ylethynyl)-2,5-dimethyl-imidazol-1-yl]-2-(2-methoxy-ethyl)-2H-pyridazin-3-one], the affinity, expressed as Ki, was 0.808 µM.
